What was measured:
[1] = test system: murine melanoma (B16FO line); test: Quantitative study of tumoral fixation and biodistribution of the radiolabeled compound (ex-vivo gamma counting after IV injection); format: in vivo, C57B16 mice; conditions: for Ratio (g)/Al TU/kidneys / Ratio (g)/Al Tu/Liver / Ratio (g)/Al Tu/Lungs / Ratio (g)/Al Tu/blood / Total Elimination (%/Al) / Tumor (g/Al %): Tc99m-radiolabeled, IV
Description: C57B16 mice bearing xenografts of murine melanoma (B16FO line) obtained by subcutaneous injection of 300 000 cells suspended in 100 μl of RPMI culture medium are injected subcutaneously in the back. The experiment is performed when the tumors are palpable. i.e. about 10 days […]. All the experiments (tumoral graft, injection and imaging) are carried out under isoflurane/oxygen (2.5%/2.5%) gas anesthesia.
Injection of 50 to 100 microliters of the radiolabeled solution, with a maximum activity of 20 MBQ, by direct intravenous injection (caudal vein). The activity of the empty syringe after injection+compress is also measured for calculating the actual activity injected (actual Ac injected=Ac normalized full syringe—normalized activity (empty syringe and compress). Normalization consists in calculating the theoretical activity at one and the same time chosen as reference (for example the time of injection). The measurements are performed on a regularly calibrated activity meter for medical use (Medisystem©).
(§1) Scintigraphic imaging is carried out using a dedicated small animal micro-5 imager SPECT-CT (BIOSCAN™). A planar scintigraphic image is obtained immediately after injection to verify absence of intracaudal stasis. If there is stasis, the mouse will be sacrificed at late times (24 or 48 h). Static scintigraphic images may be recorded at 2 h, 4 h, 24 h and 48 h (Imager micro-SPECT-CT BIOSCAN©).
This is done ex-vivo by gamma counting of the various samples, using a gamma well counter for medical use, regularly calibrated for the isotopes used (Tc-99m and In-111). The animals are euthanized according to the protocols allowed by the animal ethics committee at 2 h, 4 h, 24 h or 48 h. The main organs are removed (brain, spleen, kidneys, lungs, heart, alimentary canal, liver) as well as a fragment of skin, muscle, bone and a blood sample and the whole tumor. Each sample is weighed and its gamma activity is counted in a sample-changing well counter for dedicated medical use, calibrated for the radioelements used. The animal's carcass is also weighed after removing the tail; these samples are incinerated and their gamma activity is also measured. The gamma activity of the samples containing all the collected urine and the feces is also measured. The activity of each sample is normalized (relative to the time of injection), and the ratio of the activity of each sample is calculated relative to the total activity injected (=the sum of all of the activities measured except that of the tail), expressed in % per gram of tissue, for calculating the ratio of the activity present in the tumor relative to the main organs (liver, kidneys, lungs and blood). The percentage of the activity eliminated is calculated.
The mean values of all of the data for all of the mice whose data are exploitable are calculated, as well as after eliminating the animals with urinary excretion that is too quick (>50% at 2 h or 75% at 4 h, as well as the mice with tumors >2 g, as the existence of necrosis may distort the calculation of the ratio of fixation in the tumor).
The biodistribution data of the various dendrimer compounds coupled to the IFC01102 ligand (also called amine R) and to a chelating agent are compared with those of the ligand alone coupled to the DOTA chelating agent (compound AP045) and radiolabeled with the same radioelement. 8.5 Results with Compound APAG9-1 (Radiolabeled with Tc99m) The radiochemical purity is above 95%, according to the chromatographic profile obtained as described above (example 5). 12 animals were injected. The average activity injected is 3.5±2.4 MBq. 2 animals were euthanized at 2 h, 4 at 24 h and 48 h post-injection. Examples of planar image immediately post-injection and 2 hours post-injection are illustrated in FIG. 3.

[2] = Lymphatic drainage after intradermal injection in the hind paws (sentinel lymph node characterization, scintigraphy/SPECT); format: in vivo, mouse; conditions: 24 hours after intradermal injection at the two hind paws, Tc99m, 2.8 MBq
Description: as §1, with “performed” for “carried out”, “stasis.” for “stasis. If there is stasis, the mouse will be sacrificed at late times (24 or 48 h).”
Intradermal injection of 1 to 20 microliters of a suspension of radiolabeled dendrimers with a hypodermic syringe in the pad of the hindpaw of a nude mouse. A whole-body planar scintigraphic image of the mouse is obtained 5 minutes after injection to verify absence of passage of the compound through the blood. Acquisition of tomographic images (SPECT) every 30 minutes to monitor the lymphatic drainage of the compound and determine the time of disappearance of the signal in the popliteal lymph node. 9.3.a Injection of Compound X1 Labeled with Tc99m (Generation 2 Molecule)

[3] = 48 post-IV, first series (all animals)
[4] = 48 post-IV, second series (mice with too quick urinary secretion or too large tumor eliminated)
[5] = 2 h post-iv, first series (all animals)
[6] = 2 h post-iv, second series (mice with too quick urinary secretion or too large tumor eliminated)
[7] = 4 h post-IV, first series (all animals)
[8] = 4 h post-IV, second series (mice with too quick urinary secretion or too large tumor eliminated)
[9] = 24 h post-IV, first series (all animals)
[10] = 24 h post-IV, second series (mice with too quick urinary secretion or too large tumor eliminated)

## CCN(CC)CCNC(=O)c1cnc2cc(NC(=O)NCCOCCOCCNC(=O)CCOCCOCCOCCOCCOCCOCCOCCOCCOc3c(OCCOCCOCCOCCOC)cc(C(=O)NCCCNC(=O)C(CCCNC(=O)c4cccc(O)c4O)(CCCNC(=O)c4cccc(O)c4O)CCCNC(=O)c4cccc(O)c4O)cc3OCCOCCOCCOCCOC)ccc2n1 [APAG22-1]
[1]; [3]
  Ratio (g)/Al TU/kidneys: 1.74E−02
  Ratio (g)/Al Tu/Liver: 1.17E−01
  Ratio (g)/Al Tu/Lungs: 2.22E+00
  Ratio (g)/Al Tu/blood: 3.80E+00
  Total Elimination (%/Al): 7.36E+01 %/Al
  Tumor (g/Al %): 6.32E−01 g/Al %
[1]; [4]
  Ratio (g)/Al TU/kidneys: 1.74E−02
  Ratio (g)/Al Tu/Liver: 1.17E−01
  Ratio (g)/Al Tu/Lungs: 2.22E+00
  Ratio (g)/Al Tu/blood: 3.80E+00
  Total Elimination (%/Al): 7.32E+01 %/Al
  Tumor (g/Al %): 6.68E−01 g/Al %
[1]; [5]
  Ratio (g)/Al TU/kidneys: 3.36E−01
  Ratio (g)/Al Tu/Liver: 3.06E−01
  Ratio (g)/Al Tu/Lungs: 5.44E−01
  Ratio (g)/Al Tu/blood: 3.69E−01
  Total Elimination (%/Al): 2.59E+01 %/Al
  Tumor (g/Al %): 2.98E+00 g/Al %
[1]; [6]
  Ratio (g)/Al TU/kidneys: 4.75E−01
  Ratio (g)/Al Tu/Liver: 3.15E−01
  Ratio (g)/Al Tu/Lungs: 4.17E−01
  Ratio (g)/Al Tu/blood: 1.10E+00
  Total Elimination (%/Al): 1.46E+01 %/Al
  Tumor (g/Al %): 3.50E+00 g/Al %
[1]; [7]
  Ratio (g)/Al TU/kidneys: 1.09E−01
  Ratio (g)/Al Tu/Liver: 1.90E−01
  Ratio (g)/Al Tu/Lungs: 9.45E−01
  Ratio (g)/Al Tu/blood: 4.62E−01
  Total Elimination (%/Al): 3.58E+01 %/Al
  Tumor (g/Al %): 2.14E+00 g/Al %
[1]; [8]
  Ratio (g)/Al TU/kidneys: 1.09E−01
  Ratio (g)/Al Tu/Liver: 1.90E−01
  Ratio (g)/Al Tu/Lungs: 9.45E−01
  Ratio (g)/Al Tu/blood: 4.62E−01
  Total Elimination (%/Al): 3.58E+01 %/Al
  Tumor (g/Al %): 2.14E+00 g/Al %
[1]; [9]
  Ratio (g)/Al TU/kidneys: 2.11E−02
  Ratio (g)/Al Tu/Liver: 1.20E−01
  Ratio (g)/Al Tu/Lungs: 2.26E+00
  Ratio (g)/Al Tu/blood: 9.00E+00
  Total Elimination (%/Al): 6.45E+01 %/Al
  Tumor (g/Al %): 1.19E+00 g/Al %
[1]; [10]
  Ratio (g)/Al TU/kidneys: 2.11E−02
  Ratio (g)/Al Tu/Liver: 1.20E−01
  Ratio (g)/Al Tu/Lungs: 2.26E+00
  Ratio (g)/Al Tu/blood: 9.00E+00
  Total Elimination (%/Al): 5.45E+01 %/Al
  Tumor (g/Al %): 1.19E+00 g/Al %
[1]; APAG22-1: at two hours post-IV
  tumoral uptake compared with the ligand alone (AP045): higher
[1]; after IV injection of the radiolabeled compound
  time at which the maximum tumoral uptake is observed: 2 h
[1]; at 24 hours and 48 hours
  elimination compared with the ligand alone (AP045): far greater
[1]; mouse, in vivo
  Tumor to Liver ratio compared with the ligand alone (AP045): much higher

## COCCOCCOCCOCCOc1cc(COc2cc(OCc3cc(OCCOCCOCCOCCOC)c(OCCOCCOCCOCCOC)c(OCCOCCOCCOCCOC)c3)cc(C(=O)NCCCNC(=O)C(CCCNC(=O)c3cccc(O)c3O)(CCCNC(=O)c3cccc(O)c3O)CCCNC(=O)c3cccc(O)c3O)c2)cc(OCCOCCOCCOCCOC)c1OCCOCCOCCOCCOC [X1]
[2]
  hepatic activity: very low
  level of urinary elimination: very high

— patent US20160221992A1, “DENDRITIC COMPOUNDS INCLUDING A CHELATING, FLUOROCHROME OR RECOGNITION AGENT, COMPOSITIONS INCLUDING SAME AND USES THEREOF” (UNIVERSITE DE STRASBOURG, priority 2013, published 2016)
